Data published in article PMC10590377, “Synthesis of novel coumarin-based thiosemicarbazones and their implications in diabetic management via in-vitro and in-silico approaches” (Scientific Reports, 2023).
Where “and” joins values, the source holds several entries; their conditions need not be identical. Equal entries are not always repeated. Entries after “also recorded” stand apart in the source; their conditions may differ.

Columns and labels:
α-glucosidase [1] = assay: In-vitro α-glucosidase inhibition assay (4-nitro phenyl α-D-glucopyranoside substrate); assay type: biochemical; conditions: for Percent inhibition (0.5 mM): test samples 0.5 mM; for IC50: triplicate, ± SEM
Method: The most recent investigations were carried out utilizing the techniques we previously discussed. The enzyme and substrate were dissolved in phosphate buffer (pH 6.8) which also served as the reaction buffer for the experiments. A 96-well plate was used for the following ingredients: enzyme 2 U/2 mL, test samples (0.5 mM), 20 µL/well, enzyme 20 µL/well, and 135 µL/well reaction buffer. The plate was incubated for 15 min at 37 °C. Changes in absorbance brought on by substrate breakdown were measured at 400 nm for 30 min after each well-received 25 µL of 4-nitro phenyl α-D-glucopyranoside.
The formula below was used to compute the percent inhibition of all drugs tested.1 the%Inhibition=100-O.Dtestcompound/O.Dcontrol×100
EZ-FIT (Perrella Scientific, Inc., USA) to calculate the IC50 for all antidiabetic agents under the study.

α-glucosidase [2] = assay: Kinetic studies of α-glucosidase inhibition (Lineweaver–Burk, secondary replot, Dixon plots); assay type: biochemical; conditions: for type / mode of inhibition: Lineweaver–Burk plots; for Ki: secondary replot of Lineweaver–Burk plots, reconfirmed by Dixon plots
Text: In such types of inhibition, the Vmax of the enzyme remains constant, while the Km value increases (Fig. 3). Lineweaver–Burk plots were used to determine the type of inhibition of the given compounds, in which the reciprocal of the reaction rate was plotted vs. the reciprocal of substrate concentrations to investigate their effect on the Km and Vmax of the α-glucosidase (Fig. 3). To determine the Ki values for all compounds evaluated for kinetics study secondary replot of Lineweaver–Burk plots were applied by taking the slope of each line in Lineweaver–Burk plots vs. different concentrations of the tested compounds. Further Dixon plots were used for the reconfirmation of Ki values (Fig. 3).
Figure 3 The inhibitory mode of 3c, 3g and 3i against α-glucosidase enzyme (A) Line weaver-Burk plot of reciprocal of rate of reaction (velocities) vs reciprocal of substrate p-nitro phenyl-α-D-glucopyranoside in the absence of (filled black square), and in the presence of 7.00 (filled black circle), 3.50 (open circle) and 1.75 µM (open square) of 3c, 3g and 3i. (B) Secondary replot of Line weaver-Burk plot between the slopes of each line on Line weaver-Burk plot against different concentrations of 3c, 3g and 3i. (C) Dixon plot of reciprocal of rate of reaction (velocities) vs different concentrations of 3c, 3g and 3i.

| SMILES | Percent inhibition (0.5 mM) (α-glucosidase [1]) [%] | IC50 (α-glucosidase [1]) | type / mode of inhibition (α-glucosidase [2]) | Ki (α-glucosidase [2]) [µM] |
| --- | --- | --- | --- | --- |
| O=c1oc2ccccc2c(Cl)c1/C=N/NC(=S)Nc1ccccc1 [Compound 3a, (E)-2-((4-chloro-2-oxo-2H-chromen-3-yl)methylene)-N-phenylhydrazine-1-carbothioamide] | 92.45 | 10 µM and 10.1 µM |  |  |
| COc1cccc(NC(=S)N/N=C/c2c(Cl)c3ccccc3oc2=O)c1 [Compound 3b, (E)-2-((4-chloro-2-oxo-2H-chromen-3-yl)methylene)-N-(3-methoxyphenyl)hydrazine-1-carbothioamide] | 94.67 | 6.1 ± 0.11 µM |  |  |
| O=c1oc2ccccc2c(Cl)c1/C=N/NC(=S)Nc1cc(Cl)c(Cl)cc1Cl [Compound 3c, (E)-2-((4-chloro-2-oxo-2H-chromen-3-yl)methylene)-N-(2,4,5-trichlorophenyl) hydrazine-1-carbothioamide] | 94.68 | 2.57 ± 0.03 µM | competitive inhibitor; also recorded: concentration-dependent inhibition | 1.62 ± 0.041 |
| O=c1oc2ccccc2c(Cl)c1/C=N/NC(=S)NCc1ccccc1 [Compound 3d, (E)-N-benzyl-2-((4-chloro-2-oxo-2H-chromen-3-yl)methylene) hydrazine-1-carbothioamide] | 91.20 | 12.6 ± 0.16 µM |  |  |
| Cc1ccc(NC(=S)N/N=C/c2c(Cl)c3ccccc3oc2=O)cc1 [Compound 3e, (E)-2-((4-chloro-2-oxo-2H-chromen-3-yl)methylene)-N-(p-tolyl) hydrazine-1-carbothioamide] | 92.75 | 9.11 ± 0.2 µM |  |  |
| O=c1oc2ccccc2c(Cl)c1/C=N/NC(=S)NC1CCCCC1 [Compound 3f, (E)-2-((4-chloro-2-oxo-2H-chromen-3-yl)methylene)-N-cyclohexylhydrazine-1-carbothioamide] | 91.70 | 11.2 ± 0.24 µM |  |  |
| O=c1oc2ccccc2c(Cl)c1/C=N/NC(=S)NCCc1ccccc1 [Compound 3g, (E)-2-((4-chloro-2-oxo-2H-chromen-3-yl)methylene)-N-phenethylhydrazine-1-carbothioamide] | 95.15 | 2.33 ± 0.04 µM | competitive inhibitor | 1.33 ± 0.0027 |
| COc1ccc(NC(=S)N/N=C/c2c(Cl)c3ccccc3oc2=O)cc1 [Compound 3h, (E)-2-((4-chloro-2-oxo-2H-chromen-3-yl)methylene)-N-(4-methoxyphenyl) hydrazine-1-carbothioamide] | 94.63 | 3.4 ± 0.08 µM |  |  |
| O=c1oc2ccccc2c(Cl)c1/C=N/NC(=S)Nc1ccc([N+](=O)[O-])cc1 [Compound 3i, (E)-2-((4-chloro-2-oxo-2H-chromen-3-yl)methylene)-N-(4-nitrophenyl) hydrazine-1-carbothioamide] | 95.30 | 2.13 ± 0.04 µM | competitive inhibitor | 1.51 ± 0.0086 |
| Cc1cccc(C)c1NC(=S)N/N=C/c1c(Cl)c2ccccc2oc1=O [Compound 3j, (E)-2-((4-chloro-2-oxo-2H-chromen-3-yl)methylene)-N-(2,6-dimethylphenyl) hydrazine-1-carbothioamide] | 91.29 | 22.1 ± 0.37 µM |  |  |
| O=c1oc2ccccc2c(Cl)c1/C=N/NC(=S)Nc1cccc(Cl)c1Cl [Compound 3k, (E)-2-((4-chloro-2-oxo-2H-chromen-3-yl)methylene)-N-(2,3-dichlorophenyl) hydrazine-1-carbothioamide] | 92.54 | 4.22 ± 0.1 µM |  |  |
| O=c1oc2ccccc2c(Cl)c1/C=N/NC(=S)Nc1ccccc1F [Compound 3l, (E)-2-((4-chloro-2-oxo-2H-chromen-3-yl)methylene)-N-(2-fluorophenyl) hydrazine-1-carbothioamide] | 92.08 | 8.84 ± 0.16 µM |  |  |
| CNC(=S)N/N=C/c1c(Cl)c2ccccc2oc1=O [Compound 3m, (E)-2-((4-chloro-2-oxo-2H-chromen-3-yl)methylene)-N-methylhydrazine-1-carbothioamide] | 91.37 | 24.2 ± 0.31 µM |  |  |
| C[C@H]1O[C@H](O[C@H]2[C@H](O)[C@@H](O)[C@@H](O[C@H]3[C@H](O)[C@@H](O)C(O)O[C@@H]3CO)O[C@@H]2CO)[C@H](O)[C@@H](O)[C@@H]1N[C@H]1C=C(CO)[C@@H](O)[C@H](O)[C@H]1O (stereo partly drawn) [acarbose, reference compound] | 59.37 |  |  |  |
